In patent publication US20250368649A1, “TETRAHYDROPYRIDOPYRIMIDINE PAN-KRAS INHIBITORS” (Mirati Therapeutics, Inc., priority 2022, published 2025) one finds inhibition and IC50 data, which are given here for six compounds.

One assay deals with KRas WT (Homo sapiens, UniProt P01116). Description: KRas binding assay (TR-FRET displacement), KRas WT. The settings on record: for inhibition at 0.01 µM: single point, 10 nM compound.
Another assay addresses KRas G12A (Homo sapiens, UniProt P01116, G12A). Format: binding. Conditions: for inhibition at 0.01 µM: single point, 10 nM compound, read-out: Binding to KRas (% inhibition at 10 nM) G12A.
The target in another assay is KRas G12C (Homo sapiens, UniProt P01116, G12C). The assay is classed as binding. Conditions: for inhibition at 0.01 µM: single point, 10 nM compound, read-out: Binding to KRas (% inhibition at 10 nM) G12C.
KRas G12C, sequence (P01116 1-169 isoform P01116-2 G12C): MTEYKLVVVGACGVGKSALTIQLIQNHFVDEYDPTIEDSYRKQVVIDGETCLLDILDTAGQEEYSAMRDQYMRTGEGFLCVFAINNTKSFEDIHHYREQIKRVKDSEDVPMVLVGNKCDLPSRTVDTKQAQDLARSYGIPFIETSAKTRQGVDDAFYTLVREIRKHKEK
For the next assay, the target named is KRas G12S (Homo sapiens, UniProt P01116, G12S). Format: binding. Conditions: for inhibition at 0.01 µM: single point, 10 nM compound, read-out: Binding to KRas (% inhibition at 10 nM) G12S.
KRas G12S, sequence (P01116 1-169 isoform P01116-2 G12S): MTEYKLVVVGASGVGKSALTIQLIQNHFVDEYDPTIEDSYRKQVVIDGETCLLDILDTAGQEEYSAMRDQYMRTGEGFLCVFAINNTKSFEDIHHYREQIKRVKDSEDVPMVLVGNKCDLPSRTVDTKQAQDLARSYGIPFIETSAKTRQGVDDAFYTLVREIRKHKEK
In another assay the target is KRas G13D (Homo sapiens, UniProt P01116, G13D). Format: binding. The settings on record: for inhibition at 0.01 µM: single point, 10 nM compound, read-out: Binding to KRas (% inhibition at 10 nM) G13D.
KRas G13D, sequence (P01116 1-169 isoform P01116-2 G13D): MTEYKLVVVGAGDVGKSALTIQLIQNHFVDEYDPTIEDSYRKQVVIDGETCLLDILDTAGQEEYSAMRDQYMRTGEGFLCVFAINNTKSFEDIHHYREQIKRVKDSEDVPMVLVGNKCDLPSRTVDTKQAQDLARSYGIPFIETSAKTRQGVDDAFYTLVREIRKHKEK
Another assay concerns the target KRas Q61H (Homo sapiens, UniProt P01116, Q61H). Description: KRas binding assay (TR-FRET displacement), KRas Q61H. Conditions: for inhibition at 0.01 µM: single point, 10 nM compound. Background: Time-resolved FRET reads energy transfer from a long-lived donor to a nearby acceptor.
A further assay deals with MKN1 cells. Description: Inhibition of KRas-mediated phosphorylation of ERK (Cisbio HTRF pERK), MKN1 cells. The assay is classed as cell-based. Conditions: Homo sapiens, MKN-1, 3 hour compound incubation, Cisbio pERK HTRF. In short, it runs like this:
(§1)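 Seeding density of 6,000 cells per well was used, with cultures kept in RPMI/10% FBS from day 1.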

The next assay has as its system PSN1 cells. Description: Inhibition of KRas-mediated phosphorylation of ERK (Cisbio HTRF pERK), PSN1 cells. Format: cell-based. The settings on record: Homo sapiens, PSN1, 3 h, 3 hour compound incubation, Cisbio pERK HTRF. Put shortly:
as §1

In a further assay the test system is ASPC1 cells. Description: Inhibition of KRas-mediated phosphorylation of ERK (Cisbio HTRF pERK), ASPC1 cells. The assay is classed as cell-based. The settings on record: Homo sapiens, AsPC-1 cells; for IC50: ASPC1, 3 h, 3 hr compound incubation, Cisbio pERK HTRF.
A further assay has as its system H727 cells. Description: Inhibition of KRas-mediated phosphorylation of ERK (Cisbio HTRF pERK), H727 cells. The assay is classed as cell-based. Conditions: Homo sapiens; for IC50: NCI-H727, 3 h, 3 hr compound incubation, Cisbio pERK HTRF.
Another assay relates to A549 cells. Description: Inhibition of KRas-mediated phosphorylation of ERK (Cisbio HTRF pERK), A549 cells. Format: cell-based. Conditions: Homo sapiens; for inhibition at 0.1 µM: single point at 100 nM, 3 hrs compound incubation; for IC50: A549, 3 h, 3 hr compound incubation, Cisbio pERK HTRF.
The test system of a further assay is H460 cells. Description: Inhibition of KRas-mediated phosphorylation of ERK (Cisbio HTRF pERK), H460 cells. The assay is classed as cell-based. The settings on record: Homo sapiens; for inhibition at 0.1 µM: NCI-H460, single point at 100 nM, 3 hrs compound incubation; for IC50: NCI-H460, 3 h, 3 hr compound incubation, Cisbio pERK HTRF.
For a further assay, the system named is HCT116 cells. Description: Inhibition of KRas-mediated phosphorylation of ERK (Cisbio HTRF pERK), HCT116 cells. The assay is classed as cell-based. The settings on record: Homo sapiens; for inhibition at 0.1 µM: HCT-116, single point at 100 nM, 3 hrs compound incubation; for IC50: HCT-116, 3 h, 3 hr compound incubation, Cisbio pERK HTRF.
A further assay relates to H358 cells. Description: Inhibition of KRas-mediated phosphorylation of ERK (Cisbio HTRF pERK), H358 cells. Format: cell-based. The settings on record: Homo sapiens, NCI-H358, single point at 100 nM, 3 hrs compound incubation.
In another assay the target is KRas G12D (Homo sapiens, UniProt P01116, G12D). Description: biochemical. Conditions: Binding to KRas (IC50 nM) G12D, TR-FRET displacement, KRas G12D.
KRas G12D, sequence (P01116 1-169 isoform P01116-2 G12D): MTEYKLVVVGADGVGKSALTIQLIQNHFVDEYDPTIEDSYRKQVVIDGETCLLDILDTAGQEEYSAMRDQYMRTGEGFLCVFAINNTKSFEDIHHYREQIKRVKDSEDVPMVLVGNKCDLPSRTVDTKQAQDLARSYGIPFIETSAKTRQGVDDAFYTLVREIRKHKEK
Another assay addresses KRas G12R (Homo sapiens, UniProt P01116, G12R). Description: biochemical. Conditions: Binding to KRas (IC50 nM) G12R, TR-FRET displacement, KRas G12R.
For a further assay, the target named is KRas G12V (Homo sapiens, UniProt P01116, G12V). Description: biochemical. Conditions: Binding to KRas (IC50 nM) G12V, TR-FRET displacement, KRas G12V.
KRas G12V, sequence (P01116 1-169 isoform P01116-2 G12V): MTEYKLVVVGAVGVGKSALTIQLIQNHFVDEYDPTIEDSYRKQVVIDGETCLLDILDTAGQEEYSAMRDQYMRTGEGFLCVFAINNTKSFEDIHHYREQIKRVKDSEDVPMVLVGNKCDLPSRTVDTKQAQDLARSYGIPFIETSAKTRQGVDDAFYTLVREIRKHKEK

Bounds are passed on as bounds.

KRas G12R, sequence (P01116 1-169 isoform P01116-2 G12R): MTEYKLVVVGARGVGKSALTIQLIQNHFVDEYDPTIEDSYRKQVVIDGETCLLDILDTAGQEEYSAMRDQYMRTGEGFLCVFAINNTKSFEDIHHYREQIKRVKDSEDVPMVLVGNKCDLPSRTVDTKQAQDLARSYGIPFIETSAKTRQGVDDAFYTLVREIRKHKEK
KRas Q61H, sequence (P01116 1-169 isoform P01116-2 Q61H): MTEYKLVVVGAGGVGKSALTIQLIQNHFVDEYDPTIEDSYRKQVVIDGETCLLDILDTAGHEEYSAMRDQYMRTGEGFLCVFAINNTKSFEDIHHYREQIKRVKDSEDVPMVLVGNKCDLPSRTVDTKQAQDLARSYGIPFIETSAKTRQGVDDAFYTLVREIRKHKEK
KRas WT, sequence (P01116 1-169 isoform P01116-2): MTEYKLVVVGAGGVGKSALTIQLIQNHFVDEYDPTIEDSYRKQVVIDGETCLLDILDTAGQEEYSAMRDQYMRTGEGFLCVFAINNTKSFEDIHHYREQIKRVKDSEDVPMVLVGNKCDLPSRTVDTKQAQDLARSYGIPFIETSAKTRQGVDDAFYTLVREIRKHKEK
KRas G12A, sequence (P01116 1-169 isoform P01116-2 G12A): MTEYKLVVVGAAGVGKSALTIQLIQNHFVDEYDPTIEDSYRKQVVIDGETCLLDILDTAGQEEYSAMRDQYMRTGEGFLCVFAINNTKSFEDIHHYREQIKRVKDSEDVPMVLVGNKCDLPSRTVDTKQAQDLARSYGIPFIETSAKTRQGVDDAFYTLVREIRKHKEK

By inhibition is commonly meant the drop in the measured response relative to a control, in per cent. One may read the IC50 as the concentration at which inhibition is half-maximal. Regarding `CCc1c(F)ccc2cc(O)cc(N3CCc4c(nc(OC[C@@]56CCCN5C[C@H](F)C6)nc4N4CCCn5nc(C(=O)N6CCN7CC(O)CC7C6)cc5C4)C3)c12` (stereo partly drawn) [Example 257, (5-(7-(8-ethyl-7-fluoro-3-hydroxynaphthalen-1-yl)-2-(((2R,7aS)-2-fluorotetrahydro-1H-pyrrolizin-7a(5H)-yl)methoxy)-5,6,7,8-tetrahydropyrido[3,4-d]pyrimidin-4-yl)-5,6,7,8-tetrahydro-4H-pyrazolo[1,5-a][1,4]diazepin-2-yl)(7-hydroxyhexahydropyrrolo[1,2-a]pyrazin-2(1H)-yl)methanone], the inhibition at 0.01 µM on KRas WT stood at 98%; at KRas G12A, 97%; at KRas G12C, 99%; at KRas G12S, 99%; on KRas G13D it was 98%; at KRas Q61H it was 100%. In addition, the IC50 in the assay with MKN1 cells was 1.2 nM; with PSN1 cells, greater than 10000 nM; in the assay on ASPC1 cells, 31 nM; with H727 cells, 55 nM; at KRas G12D, less than 2 nM; on KRas G12R, less than 2 nM. This compound returned an IC50 on KRas G12V of less than 2 nM. Besides, the inhibition at 0.1 µM in the assay with ASPC1 cells (ASPC1, single point at 100 nM, 3 hrs compound incubation) amounted to 77%; with H727 cells (NCI-H727, single point at 100 nM, 3 hrs compound incubation) it was 36%; in the assay with A549 cells it was 35%; with H460 cells, 21%; in the assay with HCT116 cells it was 8%; with H358 cells, 95%.

For `CCc1c(F)ccc2cc(O)cc(N3CCc4c(nc(OC[C@@]56CCCN5C[C@H](F)C6)nc4N4CCCn5nc(NC)c(C)c5C4)C3)c12` [Example 376, 5-ethyl-6-fluoro-4-(2-(((2R,7aS)-2-fluorohexahydro-1H-pyrrolizin-7a-yl)methoxy)-4-(3-methyl-2-(methylamino)-7,8-dihydro-4H-pyrazolo[1,5-a][1,4]diazepin-5(6H)-yl)-5,6-dihydropyrido[3,4-d]pyrimidin-7(8H)-yl)naphthalen-2-ol], the inhibition at 0.01 µM was 53% at KRas WT; 54% at KRas G12A; 78% on KRas G12C; 70% on KRas G12S; 61% on KRas G13D; 51% on KRas Q61H. The IC50 was 76.1 nM in the assay on MKN1 cells; greater than 10000 nM with PSN1 cells; 55 nM with ASPC1 cells; 124 nM in the assay on H727 cells; 112 nM with H460 cells; 4 nM on KRas G12D. Also, the IC50 on KRas G12R was determined as 3 nM; at KRas G12V, 4 nM. Besides, the inhibition at 0.1 µM in the assay on A549 cells amounted to 34%; in the assay with H358 cells it was 70%.

`CCc1c(F)ccc2cc(O)cc(N3CCc4c(nc(OC[C@@]56CCCN5C[C@H](F)C6)nc4N4CCCC5(CC(=O)NC5=O)C4)C3)c12` (stereo partly drawn) [Example 419, 7-(7-(8-ethyl-7-fluoro-3-hydroxynaphthalen-1-yl)-2-(((2R,7aS)-2-fluorohexahydro-1H-pyrrolizin-7a-yl)methoxy)-5,6,7,8-tetrahydropyrido[3,4-d]pyrimidin-4-yl)-2,7-diazaspiro[4.5]decane-1,3-dione]: the inhibition at 0.01 µM on KRas WT stood at 62%; at KRas G12A, 54%; on KRas G12C, 83%; at KRas G12S, 72%; at KRas G13D, 82%; at KRas Q61H, 90%. The IC50 worked out at 6 nM in the assay with MKN1 cells; 194 nM in the assay on PSN1 cells; 40 nM with ASPC1 cells; 37 nM in the assay on H727 cells; 9 nM with A549 cells; 20 nM in the assay on H460 cells. For the same compound, the IC50 in the assay with HCT116 cells is 38 nM; on KRas G12D it was less than 2 nM; at KRas G12R, less than 2 nM; on KRas G12V it was less than 2 nM.

Turning to `CCc1c(F)ccc2cc(O)cc(N3CCc4c(nc(OC[C@@]56CCCN5C[C@H](F)C6)nc4N4CCCOCC4)C3)c12` [Example 420, 5-ethyl-6-fluoro-4-(2-(((2R,7aS)-2-fluorohexahydro-1H-pyrrolizin-7a-yl)methoxy)-4-(1,4-oxazepan-4-yl)-5,6-dihydropyrido[3,4-d]pyrimidin-7(8H)-yl)naphthalen-2-ol], the inhibition at 0.01 µM on KRas WT was 95%; on KRas G12A, 96%; at KRas G12C, 98%; on KRas G12S, 97%; at KRas G13D, 95%; on KRas Q61H, 97%. In addition, the IC50 with MKN1 cells is 5.8 nM; in the assay on PSN1 cells it was 2740 nM; in the assay on ASPC1 cells it was 66 nM; with H727 cells, 38 nM; in the assay on A549 cells, 24 nM; with H460 cells it was 38 nM. Besides, the 50% inhibitory concentration (IC50) in the assay on HCT116 cells is 143 nM; on KRas G12D, less than 2 nM; at KRas G12R, less than 2 nM; on KRas G12V, less than 2 nM.

Consider `CCc1c(F)ccc2cc(O)cc(N3CCc4c(nc(OC[C@@]56CCCN5C[C@H](F)C6)nc4N4Cc5cn(C(=O)N(C)C)nc5CC(C)C4)C3)c12` (stereo partly drawn) [Example 422, 5-(7-(8-ethyl-7-fluoro-3-hydroxynaphthalen-1-yl)-2-(((2R,7aS)-2-fluorohexahydro-1H-pyrrolizin-7a-yl)methoxy)-5,6,7,8-tetrahydropyrido[3,4-d]pyrimidin-4-yl)-N,N,7-trimethyl-5,6,7,8-tetrahydropyrazolo[4,3-c]azepine-2(4H)-carboxamide], for which the inhibition at 0.01 µM at KRas WT worked out at 58%; on KRas G12A, 55%; on KRas G12C, 72%; at KRas G12S, 60%; at KRas G13D it was 55%; on KRas Q61H it was 62%. Further, the IC50 in the assay on MKN1 cells is 189 nM; in the assay on PSN1 cells, greater than 10000 nM; in the assay on ASPC1 cells it was 163 nM; in the assay on H727 cells it was 78 nM; in the assay on A549 cells, 147 nM; with H460 cells, 169 nM. For the same compound, the IC50 in the assay on HCT116 cells is 616 nM; at KRas G12D, 2 nM; on KRas G12R it was 3 nM; at KRas G12V it was less than 2 nM.

Take `CCc1c(F)ccc2cccc(N3CCc4c(nc(OC[C@@]56CCCN5C[C@H](F)C6)nc4N4CCCn5nc(C(=O)N(C)C)cc5C4)C3)c12` [Example 481, 5-(7-(8-ethyl-7-fluoronaphthalen-1-yl)-2-(((2R,7aS)-2-fluorohexahydro-1H-pyrrolizin-7a-yl)methoxy)-5,6,7,8-tetrahydropyrido[3,4-d]pyrimidin-4-yl)-N,N-dimethyl-5,6,7,8-tetrahydro-4H-pyrazolo[1,5-a][1,4]diazepine-2-carboxamide]: the concentration for half-maximal inhibition (IC50) was 11 nM at KRas WT (TR-FRET displacement); 7 nM at KRas G12A (TR-FRET displacement, read-out: Binding to KRas (IC50 nM) G12A); 4 nM at KRas G12C (TR-FRET displacement, read-out: Binding to KRas (IC50 nM) G12C); 5 nM at KRas G12S (TR-FRET displacement, read-out: Binding to KRas (IC50 nM) G12S); 15 nM at KRas G13D (TR-FRET displacement, read-out: Binding to KRas (IC50 nM) G13D); 13 nM at KRas Q61H (TR-FRET displacement). For the same compound, the IC50 in the assay with MKN1 cells was 480 nM; in the assay on PSN1 cells, greater than 10000 nM; with ASPC1 cells, 106 nM; with H727 cells, 194 nM; in the assay with A549 cells, 285 nM; at KRas G12D, less than 2 nM. In addition, the IC50 came out at 6 nM at KRas G12R and 2 nM at KRas G12V. The results for the inhibition at 0.1 µM in the assay on H460 cells and in the assay on HCT116 cells were -1% and 8%, respectively.
